Measured values reported in US11584765B2 (priority 2017, dated 2023).

System: C57BL/6 mice
Assay: animal or person
Format: in vivo
Details: Mus musculus, sc, 0.5 h, s.c. administration, 30 min, 55° C. water, read-out: ED50 (mg/kg) at 30 min on C57BL/6 mice in Warm-water Tail-flick Test

Row | SMILES | ED50 [mg/kg]
1 | CCOCC1(CCc2csc(C)c2)CCN(Cc2cnn(C)c2)CC1 [Compound 279, 4-(ethoxymethyl)-1-((1-methyl-1H-pyrazol-4-yl)methyl)-4-(2-(5-methylthiophen-3-yl)ethyl)piperidine] | > 10
2 | CCOCC1(CCc2ccc(C)cc2)CCN(Cc2cccnc2)C1 (stereo not shown) [Compound 291, 3-((3-(ethoxymethyl)-3-(4-methyl-phenethyl)pyrrolidin-1-yl)methyl)pyridine] | > 10
3 | CC(=O)N(C)c1ccc(CN2CCC(CCc3ccccc3)(c3ncc[nH]3)CC2)cc1 [Compound 43, N-(4-((4-(1H-imidazol-2-yl)-4-phenethylpiperidin-1-yl)methyl)phenyl)-N-methylacetamide] | > 10
4 | CCOCC1(CCc2ccccn2)CCN(Cc2ccc(NC(C)=O)cc2)CC1 [Compound 149, N-(4-((4-(ethoxymethyl)-4-(2-(pyridin-2-yl)ethyl)piperidin-1-yl)methyl)phenyl)acetamide] | > 10
5 | C=CCC1(c2ccccn2)CCN(Cc2ccc(NC(C)=O)cc2)CC1 [Compound 49, N-(4-((4-allyl-4-(pyridin-2-yl)piperidin-1-yl)methyl)phenyl)acetamide] | > 10
6 | Clc1ccccc1CN1CCC(CCc2ccccc2)(C2CCCO2)C1 (stereo not shown) [Compound 196, 1-(2-chlorobenzyl)-3-phenethyl-3-(tetrahydrofuran-2-yl)pyrrolidine] | > 10
7 | CC(=O)Nc1ccc(CN2CCC(CCc3ccccn3)(c3ccccn3)CC2)cc1 [Compound 16, N-(4-((4-(pyridin-2-yl)-4-(2-(pyridin-2-yl)ethyl)piperidin-1-yl)methyl)phenyl)acetamide] | > 10
8 | CC(=O)Nc1ccc(NN2CCC(CCc3ccccc3)(c3ccccn3)CC2)cc1 [Compound 31, N-(4-(4-phenethyl-4-(pyridin-2-yl)piperidin-1-ylamino)phenyl)acetamide] | > 10
9 | Cn1cc(CN2CCC(CCc3ccccc3)(c3ccccn3)CC2)cn1 [Compound 417, 2-(1-((1-methyl-1H-pyrazol-4-yl)methyl)-4-phenethylpiperidin-4-yl)pyridine] | < 10
10 | CCOCC1(CCc2ccccc2)CCN(C(C)c2cnc(C)s2)C1 (stereo not shown) [Compound 346, 5-(1-(3-(ethoxymethyl)-3-phenethylpyrrolidin-1-yl)ethyl)-2-methylthiazole] | < 10
11 | CCOC(=O)C1(CCc2ccccc2)CCCN(Cc2ccc(NC(C)=O)cc2)CC1 (stereo not shown) [Compound 133, ethyl 1-(4-acetamidobenzyl)-4-phenethylazepane-4-carboxylate] | > 10
12 | CCOCC1(CCc2cc(C)cs2)CCN(Cc2cccnc2)C1 (stereo not shown) [Compound 284, 3-((3-(ethoxymethyl)-3-(2-(4-methylthiophen-2-yl)ethyl)pyrrolidin-1-yl)methyl)pyridine] | < 10
13 | CCOC[C@@]1(CCc2ccsc2)CCN(C(C)c2cccnc2)C1 (stereo partly drawn) [Compound 387, 3-(1-((S)-3-(ethoxymethyl)-3-(2-(thiophen-3-yl)ethyl)pyrrolidin-1-yl)ethyl)pyridine] | < 10
14 | CC(=O)Nc1ccc(CN2CCC(CCc3ccccc3)(c3ccccn3)CC2)cc1F.Cl [Compound 52, N-(2-fluoro-4-((4-phenethyl-4-(pyridin-2-yl)piperidin-1-yl)methyl)phenyl)acetamide HCl] | > 10
15 | CCOC[C@@]1(CCc2ccccc2)CCN(Cc2cccnc2)C1 [Compound 269] | < 10
16 | Cc1nc(CN2CCC(CCc3ccccc3)(C3CCCCO3)C2)cs1 (stereo not shown) [Compound 211, 2-methyl-4-((3-phenethyl-3-(tetrahydro-2H-pyran-2-yl)pyrrolidin-1-yl)methyl)thiazole] | > 10
17 | CC(=O)Nc1ccc(CN2CCC(CCc3ccccc3)(Cc3ccccn3)CC2)cc1 [Compound 39, N-(4-((4-phenethyl-4-(pyridin-2-ylmethyl)piperidin-1-yl)methyl)phenyl)acetamide] | > 10
18 | CC(=O)Nc1ccc(CN2CCC(CCc3ccccc3)(C3C=CC(C)O3)CC2)cc1 (stereo not shown) [Compound 175, N-(4-((4-(5-methyl-2,5-dihydrofuran-2-yl)-4-phenethylpiperidin-1-yl)methyl)phenyl)acetamide] | < 10
19 | CCOCC1(CCc2ccsc2)CCN(Cc2cccnc2)C1 (stereo not shown) [Compound 252] | < 10
20 | c1ccc(C2(CCc3cccs3)CCN(Cc3cccnc3)CC2)nc1 [Compound 410, 2-(1-(pyridin-3-ylmethyl)-4-(2-(thiophen-2-yl)ethyl)piperidin-4-yl)pyridine] | < 10
21 | CCOCC1(CCc2ccccc2)CCN(C(CC)c2cnc(C)cc2CC)CC1 (stereo not shown) [Compound 400, 5-(1-(4-(ethoxymethyl)-4-phenethylpiperidin-1-yl)propyl)-4-ethyl-2-methylpyridine] | < 10
22 | CCOC[C@@]1(CCc2ccc(F)cn2)CCN(C(C)(C)c2ccc(C)nc2)C1 [Compound 372, (S)-2-(2-(3-(ethoxymethyl)-1-(2-(6-methylpyridin-3-yl)propan-2-yl)pyrrolidin-3-yl)ethyl)-5-fluoropyridine] | < 10

Row | SMILES | ED50 [mg/kg]
23 | CCOC[C@@]1(CCc2ccc(C)s2)CCN(Cc2ccc(C)nc2)C1 [Compound 408, (S)-5-((3-(ethoxymethyl)-3-(2-(5-methylthiophen-2-yl)ethyl)pyrrolidin-1-yl)methyl)-2-methylpyridine] | < 10
24 | CCOC[C@@]1(COc2ccccc2)CCN(Cc2ccc(C)nc2)C1 [Compound 419, (R)-5-((3-(ethoxymethyl)-3-(phenoxy-methyl)pyrrolidin-1-yl)methyl)-2-methylpyridine] | < 10
25 | CC(=O)Nc1ccc(CN2CCC(CCc3ccccc3)(c3nnc(C)o3)CC2)cc1 [Compound 12, N-(4-((4-(5-methyl-1,3,4-oxadiazol-2-yl)-4-phenethylpiperidin-1-yl)methyl)phenyl)acetamide] | > 10
26 | CCOCC1(CCc2ccccc2)CCN(Cc2ccc(C(C)=O)cc2)CC1 [Compound 146, 1-(4-((4-(ethoxymethyl)-4-phenethylpiperidin-1-yl)methyl)phenyl)ethanone] | > 10
27 | CCOCC1(CCc2csc(C)c2)CCN(Cc2cccnc2)C1 (stereo not shown) [Compound 287, 3-((3-(ethoxymethyl)-3-(2-(5-methylthiophen-yl)ethyl)pyrrolidin-1-yl)methyl)pyridine] | < 10
28 | CCOCC1(CCc2ccccc2)CCN(c2ccc(CNC(C)=O)cc2)CC1 [Compound 174, N-(4-(4-(ethoxymethyl)-4-phenethylpiperidin-1-yl)benzyl)acetamide] | > 10
29 | CCOCC1(COCc2ccccc2)CCN(Cc2ccc(NC(C)=O)cc2)CC1.Cl [Compound 132, N-(4-((4-(benzyloxymethyl)-4-(ethoxymethyl)piperidin-1-yl)methyl)phenyl)acetamide HCl] | > 10
30 | CCOCC1(CCc2ccccc2)CCN(Cc2ccc(-c3n[nH]c(=O)[nH]3)cc2)CC1 [Compound 155, 3-(4-((4-(ethoxymethyl)-4-phenethylpiperidin-1-yl)methyl)phenyl)-1H-1,2,4-triazol-5(4H)-one] | > 10
31 | CCOC[C@@]1(CCc2ccsc2)CCN(Cc2ccc(C)nc2)C1 [Compound 318, (S)-5-((3-(ethoxymethyl)-3-(2-(thiophen-3-yl)ethyl)pyrrolidin-1-yl)methyl)-2-methylpyridine] | < 10
32 | CCOCC1(CCc2cccs2)CCN(Cc2cnn(C)c2)CC1 [Compound 233, 4-(ethoxymethyl)-1-((1-methyl-1H-pyrazol-4-yl)methyl)-4-(2-(thiophen-2-yl)ethyl)piperidine] | < 10
33 | CCOCC1(CCc2ccc(F)cc2)CCN(Cc2cccnc2)C1 (stereo not shown) [Compound 290, 3-((3-(ethoxy-methyl)-3-(4-fluoro-phenethyl)pyrrolidin-1-yl)methyl)pyridine] | < 10
34 | CCOC[C@@]1(CCc2cc(C)cs2)CCN(Cc2ccc(C)nc2)C1 [Compound 321, (S)-5-((3-(ethoxymethyl)-3-(2-(4-methylthiophen-2-yl)ethyl)pyrrolidin-1-yl)methyl)-2-methylpyridine] | < 10
35 | CC(=O)Nc1ccc(CN2CCC(CCc3ccccc3)(c3ncc[nH]3)CC2)cc1 [Compound 1] | > 10
36 | CC(=O)Nc1ccc(CN2CCC(CCc3cccs3)(C3CCCO3)CC2)cc1 (stereo not shown) [Compound 172, N-(4-((4-(tetrahydrofuran-2-yl)-4-(2-(thiophen-2-yl)ethyl)piperidin-1-yl)methyl)phenyl)acetamide] | < 10
37 | CCOCC1(CCc2ccccc2)CCN(C(CC)(CC)c2ccc(C)nc2)CC1 [Compound 399, 5-(3-(4-(ethoxymethyl)-4-phenethylpiperidin-1-yl)pentan-3-yl)-2-methylpyridine] | > 10
38 | CCOCC1(CCc2ccccc2)CCN(C(C)c2cnn(C)c2)C1 (stereo not drawn) [Compound 332, 4-(1-(3-(ethoxymethyl)-3-phenethylpyrrolidin-1-yl)ethyl)-l-methyl-1H-pyrazole] | < 10
39 | CC(=O)Nc1ccc(CN2CCC(CCc3ccsc3)(C3CCCO3)CC2)cc1 (stereo not shown) [Compound 186, N-(4-((4-(tetrahydrofuran-2-yl)-4-(2-(thiophen-3-yl)ethyl)piperidin-1-yl)methyl)phenyl)acetamide] | > 10
40 | CCOC[C@]1(CCc2ccsc2)CCN(C(C)(C)c2ccc(C)nc2)C1 [Compound 352, (R)-5-(2-(3-(ethoxymethyl)-3-(2-(thiophen-3-yl)ethyl)pyrrolidin-1-yl)propan-2-yl)-2-methylpyridine] | < 10
41 | CCOC[C@@]1(CCc2nc(C)cs2)CCN(C(C)(C)c2ccc(C)nc2)C1.Cl [Compound 449, (S)-2-(2-(3-(ethoxymethyl)-1-(2-(6-methylpyridin-3-yl)propan-2-yl)pyrrolidin-3-yl)ethyl)-4-methylthiazole HCl] | < 10
42 | Clc1ccccc1CN1CCC(CCc2ccccc2)(C2CCCCO2)C1 (stereo not shown) [Compound 210, 1-(2-chlorobenzyl)-3-phenethyl-3-(tetrahydro-2H-pyran-2-yl)pyrrolidine] | > 10
43 | CCOC[C@@]1(CCc2ccc(C)s2)CCN(Cc2cccnc2)C1 [Compound 463, (S)-3-((3-(ethoxymethyl)-3-(2-(5-methylthiophen-2-yl)ethyl)pyrrolidin-1-yl)methyl)pyridine] | < 10
